From patent US20260217701A1, “SELECTIVE BET INHIBITORS AND USES THEREOF” (Tay Therapeutics Limited, priority 2022, published 2026)
“And” between values parts separate entries of the source, which are not always exact repeats. Equal values may be shown once. Read-outs that look alike come from different tables or passages of the source.

Test system: IL-17A
Test: IL-17A release from activated human PBMCs (ELISA)
Type: cell-based
Experimental: Human PBMCs used to analyze inhibition of CXCL10 were collected from 8 donors, PBMCs used to analyze inhibition of IL-17A were collected from 7 donors, and PBMCs used to analyze inhibition of IL-22 were collected from 6 donors. Compounds were serially diluted in 10 mM DMSO and further diluted in assay media to 100× the required final concentration, of which 2 μL was added to the specified well. […] The cell culture supernatant was collected and levels of IL-17A and IL-22 in the supernatant were assessed by ELISA (Invitrogen).

Q: With `Cn1cc(-c2ccccc2)c(-c2cn(C)c(=O)c3[nH]c(-c4cnn(C(F)(F)F)c4)cc23)cc1=O` [Compound A, 6-methyl-4-(1-methyl-2-oxo-5-phenyl-1,2-dihydropyridin-4-yl)-2-(1-(trifluoromethyl)-1H-pyrazol-4-yl)-1,6-dihydro-7H-pyrrolo[2,3-c]pyridin-7-one] as the molecule, how does the “potency against IL-17A relative to CXCL10” value read?
A: about 13,000 fold

Q: And the “Biomarker selectivity (IL-17 vs. CXCL10)” value (Average preliminary biomarker assay)?
A: 3492 Fold

Q: And the “Percent Inhibition Relative to Control (IL-17A)” value (Compound Conc. 0.000137174 μM, Donors 1-7, two values per donor)?
A: 30.76% and 39.93% and 12.53% and 17.16% and 22.57% and 38.63% and 4.46% and 42.02% and 55.02* Percent and 40.50% and 25.91% and 19.06% and 25.23% and 32.91%

Q: What about the “Percent Inhibition Relative to Control (IL-17A)” value (Compound Conc. 0.000411523 μM, Donors 1-7, two values per donor) of the same molecule?
A: 42.92% and 60.88% and 49.48% and 23.24% and 46.54% and 52.23% and 60.62% and 51.01% and 51.11% and 62.34% and 51.68% and 47.46% and 28.29% and 56.37%

Q: What about the “Percent Inhibition Relative to Control (IL-17A)” value (Compound Conc. 0.001234568 μM, Donors 1-7, two values per donor) of the same molecule?
A: 56.92% and 75.17% and 53.28% and 57.9% and 62.54% and 63.56% and 62.80% and 67.54% and 70.18% and 58.60% and 66.13% and 59.19% and 60.91% and 75.98%

Q: And the “Percent Inhibition Relative to Control (IL-17A)” value (Compound Conc. 0.011111111 μM, Donors 1-7, two values per donor)?
A: 75.17% and 74.77% and 72.8%

Q: What about the “Percent Inhibition Relative to Control (IL-17A)” value (Compound Conc. 0.033333333 μM, Donors 1-7, two values per donor) of the same molecule?
A: 76.69% and 83.98% and 75.68% and 76.46% and 73.03% and 78.96% and 78.00% and 81.52% and 83.08% and 69.43% and 73.08% and 77.7% and 78.81% and 89.99%

Q: And the “Percent Inhibition Relative to Control (IL-17A)” value (Compound Conc. 0.1 μM, Donors 1-7, two values per donor)?
A: 80.29% and 80.05% and 78.2% and 79.86% and 80.34% and 80.42% and 83.72% and 86.56% and 80.96% and 85.39% and 77.87% and 84.04% and 85%

Q: What about the “Percent Inhibition Relative to Control (IL-17A)” value (Compound Conc. 1.52416E−05 μM, Donors 1-7, two values per donor) of the same molecule?
A: −2.11% and 5.95% and 4.5% and 4.36% and −0.57% and 6.2% and −11.47% and 18.94% and 28.57% and 13.94% and 37.95% and −8.34% and 0.61% and 18.05%

Q: What about the “Percent Inhibition Relative to Control (IL-17A)” value (Compound Conc. 4.57247E−05 μM, Donors 1-7, two values per donor) of the same molecule?
A: −1.00% and 28.73% and 7.45% and 18.97% and 13.64% and 16.93% and −0.28% and 32.68% and 27.06% and 28.89% and 20.58% and 2.83% and 7.11% and 42.94%

Q: And the IC50 (Homo sapiens, PBMC, Average preliminary biomarker assay, read-out: IL-17A IC50 Mean)?
A: 300 pM

Q: What about the inhibition at 0.1 µM (Homo sapiens, PBMC, Compound Conc. 0.1 μM, Donors 1-7, two values per donor, read-out: Percent Inhibition Relative to Control (IL-17A)) of the same molecule?
A: 80.8%

Q: And the IC50 (Homo sapiens, PBMC, Preliminary biomarker assay, Test Subject 1, read-out: IL-17A IC50)?
A: 200 pM

Q: What about the IC50 (Homo sapiens, PBMC, Preliminary biomarker assay, Test Subject 2, read-out: IL-17A IC50) of the same molecule?
A: 300 pM

Q: And the IC50 (Homo sapiens, PBMC, Preliminary biomarker assay, Test Subject 3, read-out: IL-17A IC50)?
A: 400 pM

Q: And the IC50 (Homo sapiens, PBMC, ELISA, read-out: Selectivity (IC50) IL-17A)?
A: 271 pM

Q: And the “IC50, inhibition of release of IL-17A” value (human PBMCs, 72 hours)?
A: sub-nanomolar

Q: What about the “effectiveness relative to GSK620 in reducing IL-17A, IL-22 and CXCL10” value (preliminary biomarker assays) of the same molecule?
A: more effective than GSK620
